Data: PMC4744035, “In Vivo, In Vitro, and In Silico Characterization of Peptoids as Antimicrobial Agents” (PLoS ONE, 2016)
In brackets after ≈: the same amount, converted by molar mass. Square brackets hold non-standard residues; d marks the D form. Peptide text beside a SMILES is read from it. Nspe = C[C@H](NCC(=O)O)c1ccccc1; Nlys = NCCCCNCC(=O)O

How the values were obtained:
[1] = system: 20 bacterial strains (13 Gram-negative, 7 Gram-positive)
Procedure: The MICs of test agents were measured using a modified broth micro-dilution method in Difco Mueller Hinton medium, on a panel of bacterial pathogens that were both susceptible and resistant to common antibiotics (S1 File). Briefly, serial dilutions were performed in 0.01% acetic acid containing 0.2% bovine serum albumin at 10-fold the desired final concentration. Ten μL of the 10-fold concentrated test reagents were added to each well of a 96-well polypropylene microtitre plate containing 90 μL of Mueller Hinton media per well. Bacteria were added to the plate from an overnight culture at a final concentration of 2–7 x 10^5 CFU/mL and incubated overnight at 37°C. The MIC is defined as the concentration at which no growth was observed.
Screening of peptoid antimicrobial activity against a panel of multidrug resistant superbugs was done according to the protocol described in the manuscript. The bacterial strains used in this panel included; P. aeruginosa PAO1 strain H103 [1], P. maltophilia ATCC#13637, S. aureus ATCC#25923 [1], E. faecalis ATCC#29212 [2], and E. cloacae 218R, constitutively expressing Class C chromosomal β-lactamase, were from the Hancock lab strains collection. An MRSA clinical isolate was kindly provided by Anthony Chow (Vancouver General Hospital, Vancouver, Canada). Two Klebsiella pneumoniae and two E. coli clinical isolates expressing extended spectrum β-lactamases (ESBL) were kindly provided by George Zhanel (Health Sciences Centre, Winnipeg, Canada). Vancomycin-resistant clinical isolates of Enterococcus faecalis and E. faecium were obtained from Ana M. Paccagnella (BC Centre for Disease Control, Vancouver, Canada). Three clinical isolates (#9, #198 and #213) of multi-drug resistant P. aeruginosa, were kindly provided by Carlos Kiffer (University of São Paulo, Brazil). […] Three P. aeruginosa clinical isolates of the Liverpool epidemic strain (LES) (H1027, H1030 and LES400) were all kindly provided by Craig Winstanley (University of Liverpool, UK). […] All tested bacterial strains were categorized as biohazard level 2 pathogens.

E. faecalis ATCC29212 = assay: microbe, parasite or virus in culture; settings: E. faecalis ATCC29212
Outline: (§1)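 Modified broth microdilution in Mueller Hinton medium in polypropylene plates; test agents serially diluted in 0.01% acetic acid with 0.2% BSA at 10-fold final concentration.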

E. coli 64771 (ESBL) = assay: microbe, parasite or virus in culture; settings: E. coli 64771 (ESBL)
Outline: as §1

[2] = system: P. aeruginosa H1030 (MDR); assay: microbe, parasite or virus in culture; settings: P. aeruginosa H1030 (MDR)
Outline: as §1

P. aeruginosa 213 (MDR) = assay: microbe, parasite or virus in culture; settings: P. aeruginosa 213 (MDR)
Outline: as §1

[3] = system: K. pneumonia 61962 (ESBL); assay: microbe, parasite or virus in culture; settings: K. pneumonia 61962 (ESBL)
Outline: as §1

E. faecium T62764 (VRE) = assay: microbe, parasite or virus in culture; settings: E. faecium T62764 (VRE)
Outline: as §1

S. aureus C623 (MRSA) = assay: microbe, parasite or virus in culture; settings: S. aureus C623 (MRSA)
Outline: as §1

[4] = system: P. aeruginosa H103 (wild type); assay: microbe, parasite or virus in culture; settings: P. aeruginosa H103 (wild type)
Outline: as §1

[5] = system: P. aeruginosa H1027 (MDR); assay: microbe, parasite or virus in culture; settings: P. aeruginosa H1027 (MDR)
Outline: as §1

E. faecalis F43559 (VRE) = assay: microbe, parasite or virus in culture; settings: E. faecalis F43559 (VRE)
Outline: as §1

P. aeruginosa 198 (MDR) = assay: microbe, parasite or virus in culture; settings: P. aeruginosa 198 (MDR)
Outline: as §1

P. aeruginosa 9 (MDR) = assay: microbe, parasite or virus in culture; settings: P. aeruginosa 9 (MDR)
Outline: as §1

S. aureus (ATCC 25923) = assay: Murine model of invasive S. aureus infection; assay type: in vivo, CD1 mice; settings: mice, 4 mg/kg
Procedure: Animal experiments were performed in accordance with University of British Columbia Care Ethics Committee approval and guidelines as per animal care certificate #A04-0020. Female CD1 mice (6–8 week old) were weighed, marked, and injected with 200 μL of S. aureus (ATCC 25923) ~10^9 CFU/mouse suspended in Mueller Hinton broth containing 5% mucin and injected intraperitoneally. Four hours after infection, animals were treated with 4 mg/kg or 100μg per mouse of peptoid 1 (experimental group; n = 10) or an equivalent volume of saline (control group; n = 10). All animals were monitored two hours after each injection step, they were also evaluated at the end of the working day and the next morning a couple of hours prior to the experimental endpoint. Humane endpoints criteria; immobilization and shaking, were put down but none of the test subjects were evaluated to reach these endpoints prior to the experimental endpoint. The mice were euthanized 24 hours post-infection using CO2. The peritoneal cavity was exposed and washed with 5 mL PBS. […] Plates were incubated overnight at 37°C and colonies were counted the following day. […] The statistical differences between peptide treated and naïve mice were assessed using PRISM® (GraphPad Software Inc., San Diego, CA) using contingency tables Chi-square test, with a confidence interval of 99%. […]

E. coli ATCC 35218 = assay type: cell-based
Outline: (§2)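 MICs determined by 2:1 serial broth microdilution in cation-adjusted Mueller-Hinton broth per CLSI M7-A6, using inoculum at 1 x 10^6 CFU/mL mixed 1:1 with peptoid solution. Three independent replicates, each with two parallel trials.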

B. subtilis ATCC 6633 = assay type: cell-based
Outline: as §2

C[C@@H](c1ccccc1)N(CC(N)=O)C(=O)CN(C(=O)CN(CCCCN)C(=O)CN(C(=O)CN(C(=O)CN(CCCCN)C(=O)CN(C(=O)CN(C(=O)CN(CCCCN)C(=O)CN(C(=O)CN(C(=O)CNCCCCN)[C@@H](C)c1ccccc1)[C@@H](C)c1ccccc1)[C@@H](C)c1ccccc1)[C@@H](C)c1ccccc1)[C@@H](C)c1ccccc1)[C@@H](C)c1ccccc1)[C@@H](C)c1ccccc1 [Peptoid 1, H-(NLys-Nspe-Nspe)4-NH2] (H-[Nlys][Nspe][Nspe][Nlys][Nspe][Nspe][Nlys][Nspe][Nspe][Nlys][Nspe][Nspe]-NH2)
median MIC against all Gram-positive strains tested ([1]; 7 Gram-positive strains): 2 µg/mL
number of pathogens with MIC ≤ 8 μg/mL ([1]; out of the 20 pathogens tested): 19
MIC (E. faecalis ATCC29212): 2 µg/mL (≈ 1.1 µM)
MIC (E. coli 64771 (ESBL)): 2 µg/mL (≈ 1.1 µM)
MIC [2]: 4 µg/mL (≈ 2.2 µM)
MIC (P. aeruginosa 213 (MDR)): 4 µg/mL (≈ 2.2 µM)
MIC [3]: 4 µg/mL (≈ 2.2 µM)
MIC (E. faecium T62764 (VRE)): 2 µg/mL (≈ 1.1 µM)
MIC (S. aureus C623 (MRSA)): 2 µg/mL (≈ 1.1 µM)
MIC [4]: 2 µg/mL (≈ 1.1 µM)
MIC [5]: 2 µg/mL (≈ 1.1 µM)
MIC (E. faecalis F43559 (VRE)): 4 µg/mL (≈ 2.2 µM)
MIC (P. aeruginosa 198 (MDR)): 4 µg/mL (≈ 2.2 µM)
MIC (P. aeruginosa 9 (MDR)): 16 µg/mL (≈ 8.79 µM)
toxicity (S. aureus (ATCC 25923)): no medium-term toxicity
MIC E. coli (E. coli ATCC 35218): 6.3 µM (≈ 11.5 µg/mL)
MIC B. subtilis (B. subtilis ATCC 6633): 1.6 µM (≈ 2.91 µg/mL)
